Values joined by “and” are separate entries in the source; they are usually repeats but may differ in a detail not shown here. Identical values can stand only once.
How the values were obtained:
[1] = test system: BjaRS107R (B0033|ATG) receiver cells; experiment: BjaR receiver cell AHSL dose-response (gfp reporter, plate reader); format: cell-based, E. coli XL10-Gold; details: for EC50: IV-HSL-activated gfp expression; for Mean normalised fluorescence / Normalised fluorescence / GFP: sheet 3d; for Normalised fluorescence / GFP: Expt1-3; for GFP: raw fluorescence ex 488/em 510 nm
Source text: These findings are consistent with the predicted translation initiation rates of the respective sequences—translation from the BBa_B0033 RBS provides 1% of protein yield compared to the BBa_B0034 RBS, just as an CTG start codon provides 1% of the protein yield compared to an ATG start codon[30],[31]. This also offers support as to why the ON-state gfp expression level increased in variants with a tighter OFF-state; more cellular resources were available for GFP synthesis when comparatively fewer were allocated to BjaR synthesis. To elucidate the impact of the S107R variant on gene circuit performance, we introduced the S107R variant alone back into the bjaRWT gene, in the context of the BBa_B0033 RBS background.
In addition to quantifying how these BjaR receiver cells responded to their branched, cognate ligand, we also sought to determine whether the BjaR receiver cells could be activated by structurally dissimilar AHSLs involved in the LuxI/R, EsaI/R, LasI/R and RhlI/R QS systems previously used in synthetic cell communication[5],[7],[8]. To this end, we measured the fluorescence of BjaR receiver cells grown in the presence of their activators, 3OC6-HSL, 3OC12-HSL and C4-HSL, respectively (Supplementary Fig. 13a).
The BjaR reporter plasmids were retransformed into E. coli XL10-Gold cells for each experiment. A single colony was used to inoculate 5 ml LB + Amp media and incubated at 37 °C, 225 r.p.m. overnight. Overnight cultures were diluted 1/250 or 1/500 in 5 ml M9 minimal media + Amp and incubated at 37 °C, 225 r.p.m. for 3 h and 45 min (until OD600 = ~0.075). Cultures were diluted down to OD600 = 0.05 with M9 minimal media + Amp, and 200 µl was added to wells of a 96-well plate containing 1 µl IV-HSL dissolved in DMSO or 1 µl BjaI CFPS reactions (IV-HSL concentrations obtained from serial dilution from 63.2 µM to 632 pM; final DMSO concentration = 0.5%). Cells were incubated at 37 °C, 800 r.p.m., in a thermomixer with a heated lid for 4 h. Fluorescence and OD600 were measured in a Tecan M1000 infinite plate reader (excitation, 488 nm; emission, 510 nm; bandwidth, 5 nm; gain, 101 and z position, 21,311 µm). The dose–response curves were fitted to the function indicated by Eq. (1), where a = maximal fluorescence output, b = basal fluorescence output, X = concentration of AHSL, GFP = fluorescence at the given condition, EC50 = AHSL at 50% maximal fluorescence output and h = hill coefficient. EC50 and h were derived using the nonlinear regression model based on Eq. (1), in MATLAB. A summary of the dose–response data is available in Supplementary Table 1.1 GFP=b+a−b/1+10^logEC50−X×h

[2] = test system: BjaRS107R (B0034|CTG) receiver cells; experiment: IV-HSL biosynthesis by BjaI in bulk CFPS reactions, quantified with receiver cells; format: cell-based, E. coli XL10-Gold; details: 10 nM
Method: We first validated bjaI expression using bulk CFPS reactions containing (^35S)-methionine to visualize the newly synthesized protein. The full-length BjaI protein (25 kDa) was successfully translated, and its expression was not influenced by the presence of SAM and IV-CoA (Fig. 4b). To establish whether the BjaI was enzymatically active, CFPS reactions containing 80 µM IV-CoA and 300 µM SAM were incubated at 37 °C for 5 h, and then serially diluted and incubated with BjaRS107R (B0034|CTG) receiver cells. Indeed, IV-HSL was successfully synthesized within the CFPS reactions as the reaction mixture containing the complete set of components (bjaI DNA + SAM + IV-CoA) fully activated gfp expression in the receivers, while no fluorescence output was observed from CFPS reactions containing SAM and IV-CoA, but without bjaI DNA template (Fig. 4c,d). […] Similarly, on transferring this system inside GUVs, BjaI-producing synthetic cells also synthesized sufficient IV-HSL to fully activate gfp expression in BjaRS107R (B0033|ATG) receiver cells. […] The loss in specific activity between CFPS performed in bulk compared to inside GUVs was attributed to the loss of inner solution during emulsion phase transfer and when the GUVs ruptured, less efficient CFPS in GUVs compared to in bulk, and absence of gene expression in some GUVs.
In total, 3 µl CFPS reactions were prepared using PURExpress with 0.8 U µl^−1 murine RNase inhibitor, 5 ng µl^−1 linear bjaI DNA template and 300 µM SAM and 80 µM IV-CoA, as indicated. Reactions were incubated for 5 h at 37 °C using a thermal cycler and then serially diluted in Milli-Q H2O. In total, 1 µl of the samples was added to lidded Corning 96-well plates containing 200 µl BjaI receiver cells (pSB1A3 BjaRS107R (CTG) at OD600 = 0.05). Cells were grown at 37 °C, 800 r.p.m. in a thermomixer with a heated lid for 4 h. OD600 and fluorescence were measured using a Tecan infinite M1000 plate reader (Ex, 488 nm; Em, 510 nm; bandwidth, 5 nm; z position, 23,179 µm and gain, 101).

CC(C)CC(=O)N[C@H]1CCOC1=O [IV-HSL, N-isovaleryl-L-homoserine lactone]
EC50 ([1]; Escherichia coli): 630 ± 100 pM
EC50 [1]: 600 pM
Mean normalised fluorescence ([1]; Log([ASHL]) -6.5): 211248
Normalised fluorescence ([1]; Log([ASHL]) -6.5): 231337 and 193994 and 208414
GFP ([1]; Log([ASHL]) -6.5): 43152 and 44129 and 37797
Mean normalised fluorescence ([1]; Log([ASHL]) -7): 191564
Normalised fluorescence ([1]; Log([ASHL]) -7): 219307 and 167549 and 187835
GFP ([1]; Log([ASHL]) -7): 41241 and 42932 and 36852
Mean normalised fluorescence ([1]; Log([ASHL]) -7.5): 185367
Normalised fluorescence ([1]; Log([ASHL]) -7.5): 205336 and 163229 and 187535
GFP ([1]; Log([ASHL]) -7.5): 40980 and 43296 and 37356
Mean normalised fluorescence ([1]; Log([ASHL]) -8): 184023
Normalised fluorescence ([1]; Log([ASHL]) -8): 162110 and 183388 and 206570
GFP ([1]; Log([ASHL]) -8): 43713 and 37962 and 41577
Mean normalised fluorescence ([1]; Log([ASHL]) -8.5): 162300
Normalised fluorescence ([1]; Log([ASHL]) -8.5): 147294 and 166971 and 172634
GFP ([1]; Log([ASHL]) -8.5): 45027 and 40097 and 44703
Mean normalised fluorescence ([1]; Log([ASHL]) -9): 128394
Normalised fluorescence ([1]; Log([ASHL]) -9): 124444 and 123486 and 137251
GFP ([1]; Log([ASHL]) -9): 38352 and 35601 and 39674
Mean normalised fluorescence ([1]; Log([ASHL]) -9.5): 61565.3
Normalised fluorescence ([1]; Log([ASHL]) -9.5): 61061.7 and 58710.4 and 64923.7
GFP ([1]; Log([ASHL]) -9.5): 18880 and 16008 and 17944
Mean normalised fluorescence ([1]; Log([ASHL]) -10): 14778.4
Normalised fluorescence ([1]; Log([ASHL]) -10): 13513.8 and 15594 and 15227.4
GFP ([1]; Log([ASHL]) -10): 4242 and 4261 and 4330
Mean normalised fluorescence ([1]; Log([ASHL]) -10.5): 3859.05
Normalised fluorescence ([1]; Log([ASHL]) -10.5): 3719.9 and 3832.44 and 4024.82
GFP ([1]; Log([ASHL]) -10.5): 1247 and 1149 and 1212
Mean normalised fluorescence ([1]; Log([ASHL]) -11): 2518.58
Normalised fluorescence ([1]; Log([ASHL]) -11): 2198.08 and 2463.87 and 2893.8
GFP ([1]; Log([ASHL]) -11): 781 and 756 and 889
Mean normalised fluorescence ([1]; Log([ASHL]) -11.5): 1640.38
Normalised fluorescence ([1]; Log([ASHL]) -11.5): 1511.18 and 1789.62 and 1620.34
GFP ([1]; Log([ASHL]) -11.5): 546 and 584 and 517
sensitivity to IV-HSL relative to BjaRWT (B0033|ATG) ([1]; more sensitive than BjaRWT (B0033|ATG)): > 6 ×
fold activation of gene expression (activation range) ([1]; with vs without IV-HSL): 135 fold
GFP [2]: 45669 and 34133 and 41279
Mean normalised fluorescence [2]: 170055
Normalised fluorescence [2]: 160035 and 169389 and 180741

Reference: PMC10449621, “Engineering cellular communication between light-activated synthetic cells and bacteria” (Nature Chemical Biology, 2023)
